Results as given in patent publication US11912679B2, “Aryl alkynamide derivatives” (Astellas Pharma, Inc., priority 2022, dated 2024).

Assays:
IFNβ production = assay: Test on IFNβ production in mice plasma (DMXAA-induced); assay type: in vivo; conditions: male C57BL/6J mice, 1 mg/kg oral, DMXAA 20 mg/kg i.p. after 1 hour, plasma 4 hours later
Method: Male C57BL/6J mice (8-12-weeks-old) were administered orally either vehicle or 1 mg/kg of test compounds. After 1 hour, 5,6-Dimethylxanthenone-4-acetic acid (DMXAA) (BLD Pharmatech Ltd, BD126695) was administered intraperitoneally at a dose of 20 mg/kg. Four hours later, the mice were euthanized, and the plasma was collected. Plasma concentration of IFNβ was measured by an enzyme-linked immunosorbent assay method using an AlphaLISA Mouse IFNβ Detection Kit (Parkin Elmer, AL586C), and the inhibition ratio to the vehicle administration group was calculated.

saliva production = assay: Test on drug-induced Sjogren's syndrome-like salivary dysfunction in mice; assay type: in vivo; conditions: female C57BL/6J mice, DMXAA 20 mg/kg s.c. four times weekly, test compound oral once a day for 8 days
Method: Female C57BL/6J mice (8-10-weeks-old) were injected subcutaneously with 20 mg/kg of DMXAA or its vehicle, 5% NaHCO3, four times at weekly intervals. From the day after the last DMXAA challenge, mice were orally administered the test compound or its vehicle once a day for 8 days. On the following day, saliva was collected from mice using a cotton swab under awake conditions, and saliva weight during 15 min was measured and evaluated as an indicator of salivary gland function.

IRF pathway of THP-1 = assay: Test on the activity of IRF pathway of THP-1 (THP1-Dual reporter cells stimulated with 2'3'-cGAMP); assay type: cell-based; conditions: Homo sapiens, PMA-treated, 2'3'-cGAMP 5 ug/mL, QUANTI-Luc readout, read-out: IC50 of inhibition of the activity of IRF pathway
Method: 0.3 uM of PMA (phorbol myristate acetate, SIGMA, P1585) was added to THP1-Dual™ cells (NF-κB-SEAP IRF-Luc Reporter Monocytes, Invivogen, thpd-nfis), and the cells were cultured at 37° C. for 1 day in RPMI1640 with 10% Fetal Bovine Serum (FBS). A compound with a known concentration was added, and the cells were incubated at room temperature for 1 hour. Mammalian (non-canonical) CDN, cyclic [G(2′,5′)pA(3′,5′)p] (2′3′-cGAMP, Invivogen, tlrl-nacga23) was added to a final concentration of 5 ug/mL, and the cells were cultured at 37° C. On the following day, QUANTI-Luc™ (Secreted luciferase detection medium, Invivogen, rep-qlc) was added to the culture solution and the activity of IRF pathway was measured using a microplate reader. The inhibition ratio at each concentration was determined, where the activity of IRF pathway with no addition of the test compound or 2′3′-cGAMP was defined as 100% inhibition and the activity of IRF pathway with no addition of the test compound and with addition of 2′3′-cGAMP was defined as 0% inhibition. The IC50 value was calculated by sigmoid […] model non-linear regression analysis.

| IC50 (IRF pathway of THP-1) | Structure (SMILES) | Inh (%): inhibition ratio of the production of IFNβ to the vehicle administration group (IFNβ production) | saliva production (saliva weight during 15 min) (saliva production) |
| --- | --- | --- | --- |
| 136 nM | O=C(C#Cc1ccc(-c2ccccc2)c(C(F)(F)F)c1)N1C[C@@H](O)[C@@H](O)C1 [Example 33, 1-[(3R,4S)-3,4-dihydroxypyrrolidin-1-yl]-3-[2-(trifluoromethyl)[1,1′-biphenyl]-4-yl]prop-2-yn-1-one] | 92% | significantly improved saliva production |
| 230 nM | NC(=O)C1CCN(C(=O)C#Cc2ccc(-c3ccccc3)c(C(F)(F)F)c2)CC1 [Example 34, 1-{3-[2-(trifluoromethyl)[1,1′-biphenyl]-4-yl]prop-2-ynoyl}piperidine-4-carboxamide] | 90% | significantly improved saliva production |
| 466 nM | O=C(C#Cc1ccc(-c2ccccc2)c(C(F)(F)F)c1)NC[C@H](O)CO [Example 35, N-[(2S)-2,3-dihydroxypropyl]-3-[2-(trifluoromethyl)[1,1′-biphenyl]-4-yl]prop-2-ynamide] | 83% | – |
| 615 nM | O=C(C#Cc1ccc(-c2ccccc2)c(C(F)(F)F)c1)NC[C@@H](O)CO [Example 36, N-[(2R)-2,3-dihydroxypropyl]-3-[2-(trifluoromethyl)[1,1′-biphenyl]-4-yl]prop-2-ynamide] | 85% | – |
| 201 nM | O=C(C#Cc1ccc(-c2ccccc2)c(C(F)(F)F)c1)N1C[C@@H](O)[C@H](O)C1 [Example 43, 1-[(3R,4R)-3,4-dihydroxypyrrolidin-1-yl]-3-[2-(trifluoromethyl)[1,1′-biphenyl]-4-yl]prop-2-yn-1-one] | 87% | – |
| 174 nM | O=C(C#Cc1ccc(-c2ccccc2)c(C(F)(F)F)c1)N1C[C@H](O)[C@@H](O)C1 [Example 44, 1-[(3S,4S)-3,4-dihydroxypyrrolidin-1-yl]-3-[2-(trifluoromethyl)[1,1′-biphenyl]-4-yl]prop-2-yn-1-one] | 82% | – |
| 150 nM | O=C(C#Cc1ccc(-c2ccccc2)c(C(F)(F)F)c1)N1CC(CO)(CO)C1 [Example 46, 1-[3,3-bis(hydroxymethyl)azetidin-1-yl]-3-[2-(trifluoromethyl)[1,1′-biphenyl]-4-yl]prop-2-yn-1-one] | 69% | – |
| 102 nM | N=S1(=O)CCN(C(=O)C#Cc2ccc(-c3ccccc3)c(C(F)(F)F)c2)CC1 [Example 99, 1-imino-4-{3-[2-(trifluoromethyl)[1,1′-biphenyl]-4-yl]prop-2-ynoyl}-1λ^6-thiomorpholin-1-one] | 68% | significantly improved saliva production |
| 731 nM | O=C(C#Cc1ccc(-c2ccccc2C(F)(F)F)c(CO)c1)N1C[C@@H](O)[C@@H](O)C1 [Example 133, 1-[(3R,4S)-3,4-dihydroxypyrrolidin-1-yl]-3-[2-(hydroxymethyl)-2′-(trifluoromethyl)[1,1′-biphenyl]-4-yl]prop-2-yn-1-one] | – | – |
